Literature values as cited in patent US11318142B2, “Pharmaceutical formulation for use in the treatment of depressive and anxiety disorders” (priority 2018, dated 2022).

Conditions: in vivo

half-life [h] | SMILES
~7 | COc1ccc(C(CN(C)C)C2(O)CCCCC2)cc1 (racemic) [venlafaxine, (RS)-1-[2-dimethylamino-1-(4-methoxyphenyl)-ethyl]cyclohexanol]
6 to 11 | OCCN1CCN(CCCN2c3ccccc3C=Cc3ccccc32)CC1 [opipramol, 4-[3-(5H-dibenz[b,f]azepine-5-yl)propyl]-1-piperazinethanol]
